According to ChEMBL document CHEMBL1150330, “Muscarinic antagonists with multiple stereocenters: Synthesis, affinity profile and functional activity of isomeric 1-methyl-2-(2,2-alkylaryl-1,3-oxathiolan-5-yl)pyrrolidine sulfoxide derivatives” (Bioorg Med Chem, 2008):

Key:
[1] = biological target: T1, Muscarinic acetylcholine receptor M2 (Homo sapiens, UniProt P08172); test: Displacement of [3H]NMS from human muscarinic M2 receptor expressed in CHO cells; type: cell-based
T1 sequence (P08172 whole entry): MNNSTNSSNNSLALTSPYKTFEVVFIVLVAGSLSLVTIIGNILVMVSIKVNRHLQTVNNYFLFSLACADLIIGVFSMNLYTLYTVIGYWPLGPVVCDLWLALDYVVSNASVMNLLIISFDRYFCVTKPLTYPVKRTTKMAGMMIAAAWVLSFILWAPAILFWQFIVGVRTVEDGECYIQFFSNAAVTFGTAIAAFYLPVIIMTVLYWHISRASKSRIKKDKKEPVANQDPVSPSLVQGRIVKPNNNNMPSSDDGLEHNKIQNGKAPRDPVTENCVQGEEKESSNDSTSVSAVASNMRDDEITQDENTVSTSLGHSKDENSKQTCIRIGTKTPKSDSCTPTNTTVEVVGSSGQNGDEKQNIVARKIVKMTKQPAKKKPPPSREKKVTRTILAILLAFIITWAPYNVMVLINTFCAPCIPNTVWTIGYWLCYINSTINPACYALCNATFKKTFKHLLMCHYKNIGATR

[2] = biological target: T2, Muscarinic acetylcholine receptor M1 (Homo sapiens, UniProt P11229); test: Displacement of [3H]NMS from human muscarinic M1 receptor expressed in CHO cells; type: cell-based
T2 sequence (P11229 whole entry): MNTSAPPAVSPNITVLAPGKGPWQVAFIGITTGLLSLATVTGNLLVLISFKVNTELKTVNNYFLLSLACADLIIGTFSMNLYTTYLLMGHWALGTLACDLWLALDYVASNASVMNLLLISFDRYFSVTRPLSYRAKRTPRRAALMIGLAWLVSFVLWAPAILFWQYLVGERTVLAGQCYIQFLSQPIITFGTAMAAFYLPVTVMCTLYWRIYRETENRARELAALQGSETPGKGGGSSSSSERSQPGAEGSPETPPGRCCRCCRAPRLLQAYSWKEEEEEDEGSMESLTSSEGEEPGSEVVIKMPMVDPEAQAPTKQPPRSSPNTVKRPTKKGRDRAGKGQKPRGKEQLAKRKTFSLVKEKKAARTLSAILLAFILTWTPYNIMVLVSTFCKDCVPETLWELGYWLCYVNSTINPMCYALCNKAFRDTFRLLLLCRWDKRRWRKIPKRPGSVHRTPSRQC

[3] = biological target: T3, Muscarinic acetylcholine receptor M4 (Homo sapiens, UniProt P08173); test: Displacement of [3H]NMS from human muscarinic M4 receptor expressed in CHO cells; type: cell-based
T3 sequence (P08173 whole entry): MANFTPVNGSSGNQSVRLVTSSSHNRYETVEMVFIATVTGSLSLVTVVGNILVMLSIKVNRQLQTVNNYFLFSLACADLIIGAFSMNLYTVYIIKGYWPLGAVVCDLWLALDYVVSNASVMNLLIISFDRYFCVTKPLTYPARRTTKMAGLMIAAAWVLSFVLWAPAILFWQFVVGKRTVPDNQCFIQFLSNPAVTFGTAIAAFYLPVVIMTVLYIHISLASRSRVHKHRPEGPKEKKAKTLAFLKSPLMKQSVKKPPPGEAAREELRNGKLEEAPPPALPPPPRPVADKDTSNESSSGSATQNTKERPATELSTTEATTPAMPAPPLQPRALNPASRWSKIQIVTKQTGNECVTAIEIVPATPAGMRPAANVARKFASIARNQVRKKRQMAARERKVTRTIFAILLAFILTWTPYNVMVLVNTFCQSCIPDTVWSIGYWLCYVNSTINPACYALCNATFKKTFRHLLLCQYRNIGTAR

[4] = Antagonist activity against muscarinic M3 receptor in guinea pig ileum assessed as effect on ileum tension; type: functional, Cavia porcellus
[5] = Antagonist activity against muscarinic M4 receptor in guinea pig lung strip assessed as effect on electrically-stimulated contraction; type: functional, Cavia porcellus
[6] = biological target: T4, Muscarinic acetylcholine receptor M5 (Homo sapiens, UniProt P08912); test: Displacement of [3H]NMS from human muscarinic M5 receptor expressed in CHO cells; type: cell-based
T4 sequence (P08912 whole entry): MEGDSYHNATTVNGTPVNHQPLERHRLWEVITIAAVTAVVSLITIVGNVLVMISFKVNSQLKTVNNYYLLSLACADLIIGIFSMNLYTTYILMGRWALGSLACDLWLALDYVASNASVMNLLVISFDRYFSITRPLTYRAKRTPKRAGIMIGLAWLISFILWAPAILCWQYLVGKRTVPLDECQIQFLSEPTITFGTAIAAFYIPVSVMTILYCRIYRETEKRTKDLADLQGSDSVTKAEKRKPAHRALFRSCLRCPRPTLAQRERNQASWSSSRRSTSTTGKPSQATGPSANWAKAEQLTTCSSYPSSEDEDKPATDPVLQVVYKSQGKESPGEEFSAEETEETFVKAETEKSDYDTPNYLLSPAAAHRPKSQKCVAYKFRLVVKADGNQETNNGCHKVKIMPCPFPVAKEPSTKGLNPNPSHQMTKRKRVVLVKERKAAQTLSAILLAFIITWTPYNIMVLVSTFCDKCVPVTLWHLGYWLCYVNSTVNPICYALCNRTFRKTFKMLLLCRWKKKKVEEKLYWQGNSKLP

[7] = biological target: Muscarinic acetylcholine receptor M3 (Homo sapiens, UniProt P20309); test: Displacement of [3H]NMS from human muscarinic M3 receptor expressed in CHO cells; type: cell-based
[8] = Antagonist activity against muscarinic M2 receptor in guinea pig atria assessed as effect on electrically-stimulated atria; type: functional, Cavia porcellus

Muscarinic acetylcholine receptor M3, sequence (P20309 whole entry): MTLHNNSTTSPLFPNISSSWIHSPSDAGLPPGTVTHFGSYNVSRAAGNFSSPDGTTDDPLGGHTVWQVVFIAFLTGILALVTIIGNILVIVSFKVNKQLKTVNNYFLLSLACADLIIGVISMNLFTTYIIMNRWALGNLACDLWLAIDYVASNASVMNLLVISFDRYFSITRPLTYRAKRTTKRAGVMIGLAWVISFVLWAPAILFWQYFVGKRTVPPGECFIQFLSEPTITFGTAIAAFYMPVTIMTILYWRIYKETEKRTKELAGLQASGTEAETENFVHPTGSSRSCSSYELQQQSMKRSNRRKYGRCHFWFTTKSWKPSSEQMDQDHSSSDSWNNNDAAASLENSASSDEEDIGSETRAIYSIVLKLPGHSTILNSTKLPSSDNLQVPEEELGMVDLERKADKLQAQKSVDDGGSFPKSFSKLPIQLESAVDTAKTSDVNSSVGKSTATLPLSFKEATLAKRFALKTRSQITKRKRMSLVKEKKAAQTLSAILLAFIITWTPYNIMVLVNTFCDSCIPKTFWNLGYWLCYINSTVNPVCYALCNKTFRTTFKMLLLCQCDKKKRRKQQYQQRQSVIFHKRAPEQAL

Row | Structure (SMILES) | Ki [1] | Ki [2] | Ki [3] | pKb [4] | pKb [5] | Ki [6] | Ki [7] | pKb [8]
1 | C[N+](C)(C)C[C@@H]1C[S@](=O)[C@@](c2ccccc2)(C2CCCCC2)O1.[I-] | 74.1 nM | 21.9 nM | 95.5 nM | 7.64 | 5.24 | 141 nM | 34.7 nM | 7.52
2 | CN1CCC[C@H]1[C@H]1C[S+]([O-])C(c2ccccc2)(c2ccccc2)O1 (stereo in doubt; (+)-4) | 562 nM | 110 nM | 1020 nM | 6.55 | 5.29 | 513 nM | 468 nM | 6
3 | CN1CCC[C@@H]1[C@@H]1C[S+]([O-])C(c2ccccc2)(c2ccccc2)O1 (stereo in doubt; (+)-5) | 39.8 nM | 110 nM | 316 nM | 7.17 | 5.63 | 339 nM | 282 nM | 7.1
4 | CN1CCC[C@H]1[C@H]1C[S+]([O-])[C@@](c2ccccc2)(C2CCCCC2)O1 (stereo in doubt; (+)-6) | 1020 nM | 155 nM | 447 nM | 6.43 | <5 | 525 nM | 389 nM | 5.48
5 | CN1CCC[C@H]1[C@H]1C[S+]([O-])[C@@](c2ccccc2)(C2CCCCC2)O1 (stereo in doubt; (+)-7) | 64.6 nM | 10 nM | 33.1 nM | 7.96 | 5.2 | 25.1 nM | 18.2 nM | 7.56
6 | CN1CCC[C@@H]1[C@@H]1C[S+]([O-])[C@@](c2ccccc2)(C2CCCCC2)O1 (stereo in doubt; (+)-8) | 66.1 nM | 38 nM | 93.3 nM | 7.71 | <5 | 30.2 nM | 24 nM | 7.05
7 | CN1CCC[C@@H]1[C@@H]1C[S+]([O-])[C@@](c2ccccc2)(C2CCCCC2)O1 (stereo in doubt; (+)-9) | 38 nM | 107 nM | 257 nM | 7.59 | 6.16 | 288 nM | 200 nM | 7.72
8 | C[N+]1(C)CCC[C@H]1[C@H]1C[S+]([O-])C(c2ccccc2)(c2ccccc2)O1.[I-] (stereo in doubt; (+)-10) | 141 nM | 29.5 nM | 209 nM | 6.95 | 5.54 | 91.2 nM | 209 nM | 7.2
9 | C[N+]1(C)CCC[C@@H]1[C@@H]1C[S+]([O-])C(c2ccccc2)(c2ccccc2)O1.[I-] (stereo in doubt; (+)-11) | 195 nM | 324 nM | 1170 nM | 7.62 | 5.25 | 813 nM | 417 nM | 7
10 | C[N+]1(C)CCC[C@H]1[C@H]1C[S+]([O-])[C@@](c2ccccc2)(C2CCCCC2)O1.[I-] (stereo in doubt; (+)-12) | 70.8 nM | 12 nM | 58.9 nM | 7.03 | 5.41 | 23.4 nM | 26.9 nM | 6.57
11 | C[N+]1(C)CCC[C@H]1[C@H]1C[S+]([O-])[C@@](c2ccccc2)(C2CCCCC2)O1.[I-] (stereo in doubt; (+)-13) | 17.8 nM | 3.02 nM | 15.8 nM | 8.67 | 6.37 | 3.02 nM | 4.17 nM | 7.81
12 | C[N+]1(C)CCC[C@@H]1[C@@H]1C[S+]([O-])[C@@](c2ccccc2)(C2CCCCC2)O1.[I-] (stereo in doubt; (+)-14) | 21.4 nM | 6.92 nM | 19.1 nM | 9 | 7.59 | 14.1 nM | 6.92 nM | 7.98
13 | C[N+]1(C)CCC[C@@H]1[C@@H]1C[S+]([O-])[C@@](c2ccccc2)(C2CCCCC2)O1.[I-] (stereo in doubt; (+)-15) | 77.6 nM | 93.3 nM | 302 nM | 7.1 | 6.48 | 224 nM | 162 nM | 6.97
14 | CN1CCC[C@@H]1[C@@H]1C[S+]([O-])C(c2ccccc2)(c2ccccc2)O1 (stereo in doubt; (-)-4) | 229 nM | 74.1 nM | 513 nM | 6.95 | 5.75 | 355 nM | 513 nM | 7.27
15 | CN1CCC[C@H]1[C@H]1C[S+]([O-])C(c2ccccc2)(c2ccccc2)O1 (stereo in doubt; (-)-5) | 219 nM | 145 nM | 407 nM | 6.99 | <5 | 229 nM | 302 nM | 6.42
16 | CN1CCC[C@@H]1[C@@H]1C[S+]([O-])[C@](c2ccccc2)(C2CCCCC2)O1 (stereo in doubt; (-)-6) | 107 nM | 79.4 nM | 355 nM | 7.39 | 7.24 | 275 nM | 195 nM | 7.34
17 | CN1CCC[C@@H]1[C@@H]1C[S+]([O-])[C@](c2ccccc2)(C2CCCCC2)O1 (stereo in doubt; (-)-7) | 4.17 nM | 14.1 nM | 42.7 nM | 8.71 | 6.92 | 58.9 nM | 42.7 nM | 9.37
18 | CN1CCC[C@H]1[C@H]1C[S+]([O-])[C@](c2ccccc2)(C2CCCCC2)O1 (stereo in doubt; (-)-8) | 1450 nM | 537 nM | 1510 nM | 5.95 | 5.19 | 759 nM | 692 nM | 5.71
19 | CN1CCC[C@H]1[C@H]1C[S+]([O-])[C@](c2ccccc2)(C2CCCCC2)O1 (stereo in doubt; (-)-9) | 302 nM | 93.3 nM | 501 nM | 7.1 | 5.13 | 380 nM | 347 nM | 6.59
20 | C[N+]1(C)CCC[C@@H]1[C@@H]1C[S+]([O-])C(c2ccccc2)(c2ccccc2)O1.[I-] (stereo in doubt; (-)-10) | 69.2 nM | 53.7 nM | 282 nM | 7.5 | 6.53 | 182 nM | 263 nM | 7.3
